According to paper PMC4772870 (2015):

Test system: d(ATGCAT)2 (DNA, duplex) ATGCAT
Assay: melting temperature
Settings: derived from two Tm (~30 free, ~45 complex); reviewed from authors' ref 23

dTm: ~ 15 °C
Structure (SMILES): Cc1cccc2nc3cccc(C(=O)NCCNCCNCCNC(=O)c4cccc5nc6cccc(C)c6nc45)c3nc12
